≈ marks a conversion by molar mass, not a printed value.
Tests used:
Enterococcus sp. = assay: In vitro antibacterial evaluation: minimum inhibitory concentration (MIC), broth dilution method; assay type: cell-based
How it was run: (§1)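 Using Muller-Hinton II […] and an inoculum of 5×10^5 CFU/mL, antibiotic dilutions from 64 down to 0.06 μg/mL were tested following NCCLS M7-A2. The MIC is the lowest concentration inhibiting growth, including in methicillin-, penicillin- or vancomycin-resistant clinical isolates.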

Staphylococcus sp. = assay: as above; assay type: cell-based; details: broth dilution, 18 hours at 35° C.
How it was run: as §1

Escherichia coli = assay: as above; assay type: cell-based
How it was run: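 MIC read as lowest drug level preventing visible growth. Organisms at 5×10^5 CFU/mL were exposed to a 64-0.06 μg/mL dilution series in Muller-Hinton II […] following NCCLS broth dilution standard M7-A2.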

Streptococcus sp. = assay: as above; assay type: cell-based
How it was run: as §1

[1] = test system: Staphylococcus aureus-SMITH (GC 4543); assay: Acute lethal infection in mice (ED50); assay type: in vivo; details: female CD-1 mice, intraperitoneal challenge, intravenous dose 30 min. after infection, 7 day survival ratios
How it was run: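 Lethal systemic infection model: female CD-1 mice, 20 ± 1-2 g, intraperitoneal challenge. Single intravenous treatment 30 min after infection; 7-day survival, pooled from 3 tests, gives ED50.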

[2] = broth dilution, inoculum 5×10^5 CFU/mL, 18 hours at 35° C.

Compound: CC(c1ccccc1)C1NC(=O)CNC(=O)C(CO)NC(=O)C(C(O)C2CNC(=N)N2C2OC(CO)C(O)C(O)C2O)NC(=O)C(C(O)C2CNC(=N)N2)NC(=O)C(Cc2ccc(OC3OC(CO)C(OC4OC5COC(c6cc7c(cc6Cl)OCO7)OC5C(O)C4O)C(O)C3O)cc2)NC1=O (stereo not drawn) [Example 158, Cyclo[glycyl-β-methylphenylalanyl-O-[4-O-[4,6-O-[(6-chloro-1,3-benzodioxol-5-yl)-methylene]hexopyranosyl]hexopyranosyl]tyrosyl-3-(2-iminoimidazolidin-4-yl)seryl-3-(3-hexopyranosyl-2-iminoimidazolidin-4-yl)serylseryl]]
- MIC Enterococcus avium (GC 4558) (Enterococcus sp.; [2]): 4 µg/mL (≈ 2.74 µM)
- MIC Enterococcus faecalis (ATCC 29212) (Enterococcus sp.; [2]): 4 µg/mL (≈ 2.74 µM)
- MIC Enterococcus faecalis (GC 4552) (Enterococcus sp.; [2]): 8 µg/mL (≈ 5.47 µM)
- MIC Enterococcus faecalis (GC 4553) (Enterococcus sp.; [2]): 4 µg/mL (≈ 2.74 µM)
- MIC Enterococcus faecalis (GC 4554) (Enterococcus sp.; [2]): 4 µg/mL (≈ 2.74 µM)
- MIC Enterococcus faecalis (GC 6189) (Enterococcus sp.; [2]): 4 µg/mL (≈ 2.74 µM)
- MIC Enterococcus faecium (GC 2243) (Enterococcus sp.; [2]): 4 µg/mL (≈ 2.74 µM)
- MIC Enterococcus faecium (GC 4556) (Enterococcus sp.; [2]): 8 µg/mL (≈ 5.47 µM)
- MIC Enterococcus faecium (GC 4557) (Enterococcus sp.; [2]): 2 µg/mL (≈ 1.37 µM)
- MIC Enterococcus faecalis (ATCC 29212) (Enterococcus sp.; strain ATCC 29212): 4 µg/mL (≈ 2.74 µM)
- MIC Enterococcus faecalis (GC 2242) (Enterococcus sp.; strain GC 2242): 4 µg/mL (≈ 2.74 µM)
- MIC Enterococcus faecium (GC 2243) (Enterococcus sp.; strain GC 2243): 4 µg/mL (≈ 2.74 µM)
- MIC Enterococcus faecalis (GC 2691) (Enterococcus sp.; strain GC 2691): 4 µg/mL (≈ 2.74 µM)
- MIC Enterococcus faecalis (GC 3059) (Enterococcus sp.; strain GC 3059): 4 µg/mL (≈ 2.74 µM)
- MIC Enterococcus faecalis (GC 4552) (Enterococcus sp.; strain GC 4552): 8 µg/mL (≈ 5.47 µM)
- MIC Enterococcus faecalis (GC 4553) (Enterococcus sp.; strain GC 4553): 4 µg/mL (≈ 2.74 µM)
- MIC Enterococcus faecalis (GC 4554) (Enterococcus sp.; strain GC 4554): 4 µg/mL (≈ 2.74 µM)
- MIC Enterococcus faecium (GC 4556) (Enterococcus sp.; strain GC 4556): 8 µg/mL (≈ 5.47 µM)
- MIC Enterococcus faecium (GC 4557) (Enterococcus sp.; strain GC 4557): 2 µg/mL (≈ 1.37 µM)
- MIC Enterococcus avium (GC 4558) (Enterococcus sp.; strain GC 4558): 4 µg/mL (≈ 2.74 µM)
- MIC Enterococcus faecalis (GC 6189) (Enterococcus sp.; strain GC 6189): 4 µg/mL (≈ 2.74 µM)
- MIC Coagulase Negative Staphylococcus (GC 4547) (Staphylococcus sp.; 5×10^5 CFU/mL): 2 µg/mL (≈ 1.37 µM)
- MIC Coagulase Negative Staphylococcus (GC 4548) (Staphylococcus sp.; 5×10^5 CFU/mL): 1 µg/mL (≈ 0.684 µM)
- MIC Coagulase Negative Staphylococcus (GC 4549) (Staphylococcus sp.; 5×10^5 CFU/mL): 1 µg/mL (≈ 0.684 µM)
- MIC Coagulase Negative Staphylococcus (GC 4551) (Staphylococcus sp.; 5×10^5 CFU/mL): 2 µg/mL (≈ 1.37 µM)
- MIC Coagulase Negative Staphylococcus (GC 6257) (Staphylococcus sp.; 5×10^5 CFU/mL): 1 µg/mL (≈ 0.684 µM)
- MIC Staphylococcus aureus (ATCC 29213) (Staphylococcus sp.; 5×10^5 CFU/mL): 2 µg/mL (≈ 1.37 µM)
- MIC Staphylococcus aureus (GC 1131) (Staphylococcus sp.; 5×10^5 CFU/mL): 2 µg/mL (≈ 1.37 µM)
- MIC Staphylococcus aureus (GC 3051) (Staphylococcus sp.; 5×10^5 CFU/mL): 1 µg/mL (≈ 0.684 µM)
- MIC Staphylococcus aureus (GC 3053) (Staphylococcus sp.; 5×10^5 CFU/mL): 2 µg/mL (≈ 1.37 µM)
- MIC Staphylococcus aureus (GC 4541) (Staphylococcus sp.; 5×10^5 CFU/mL): 1 µg/mL (≈ 0.684 µM)
- MIC Staphylococcus aureus (GC 4542) (Staphylococcus sp.; 5×10^5 CFU/mL): 1 µg/mL (≈ 0.684 µM)
- MIC Staphylococcus aureus (GC 4544) (Staphylococcus sp.; 5×10^5 CFU/mL): 2 µg/mL (≈ 1.37 µM)
- MIC Staphylococcus aureus (GC 4545) (Staphylococcus sp.; 5×10^5 CFU/mL): 2 µg/mL (≈ 1.37 µM)
- MIC Staphylococcus aureus-SMITH (GC 4543) (Staphylococcus sp.; 5×10^5 CFU/mL): 2 µg/mL (≈ 1.37 µM)
- MIC Staphylococcus haemolyticus (GC 4546) (Staphylococcus sp.; 5×10^5 CFU/mL): 0.5 µg/mL (≈ 0.342 µM)
- MIC Staphylococcus aureus (ATCC 29213) (Staphylococcus sp.; strain ATCC 29213): 2 µg/mL (≈ 1.37 µM)
- MIC Staphylococcus aureus (GC 1131) (Staphylococcus sp.; strain GC 1131): 2 µg/mL (≈ 1.37 µM)
- MIC Staphylococcus aureus (GC 3051) (Staphylococcus sp.; strain GC 3051): 1 µg/mL (≈ 0.684 µM)
- MIC Staphylococcus aureus (GC 3053) (Staphylococcus sp.; strain GC 3053): 2 µg/mL (≈ 1.37 µM)
- MIC Staphylococcus aureus (GC 4541) (Staphylococcus sp.; strain GC 4541): 1 µg/mL (≈ 0.684 µM)
- MIC Staphylococcus aureus (GC 4542) (Staphylococcus sp.; strain GC 4542): 1 µg/mL (≈ 0.684 µM)
- MIC Staphylococcus aureus-SMITH (GC 4543) (Staphylococcus sp.; strain GC 4543): 2 µg/mL (≈ 1.37 µM)
- MIC Staphylococcus aureus (GC 4544) (Staphylococcus sp.; strain GC 4544): 2 µg/mL (≈ 1.37 µM)
- MIC Staphylococcus aureus (GC 4545) (Staphylococcus sp.; strain GC 4545): 2 µg/mL (≈ 1.37 µM)
- MIC Staphylococcus haemolyticus (GC 4546) (Staphylococcus sp.; strain GC 4546): 0.5 µg/mL (≈ 0.342 µM)
- MIC Coagulase Negative Staphylococcus (GC 4547) (Staphylococcus sp.; strain GC 4547): 2 µg/mL (≈ 1.37 µM)
- MIC Coagulase Negative Staphylococcus (GC 4548) (Staphylococcus sp.; strain GC 4548): 1 µg/mL (≈ 0.684 µM)
- MIC Coagulase Negative Staphylococcus (GC 4549) (Staphylococcus sp.; strain GC 4549): 1 µg/mL (≈ 0.684 µM)
- MIC Coagulase Negative Staphylococcus (GC 4551) (Staphylococcus sp.; strain GC 4551): 2 µg/mL (≈ 1.37 µM)
- MIC Coagulase Negative Staphylococcus (GC 6257) (Staphylococcus sp.; strain GC 6257): 1 µg/mL (≈ 0.684 µM)
- MIC Escherichia coli (ATCC 25922) (Escherichia coli; strain ATCC 25922): 64 µg/mL (≈ 43.8 µM)
- MIC Escherichia coli (GC 4559) (Escherichia coli; strain GC 4559): 64 µg/mL (≈ 43.8 µM)
- MIC Escherichi coli (GC 4560) (Escherichia coli; strain GC 4560): 1 µg/mL (≈ 0.684 µM)
- MIC Streptococcus pneumoniae (ATCC 6301) (Streptococcus sp.; strain ATCC 6301): 0.12 µg/mL (≈ 0.0821 µM)
- MIC Streptococcus pneumoniae (GC 1894) (Streptococcus sp.; strain GC 1894): <0.06 µg/mL
- MIC Streptococcus pyogenes (GC 4563) (Streptococcus sp.; strain GC 4563): 0.25 µg/mL (≈ 0.171 µM)
- MIC Streptococcus agalactiae (GC 4564) (Streptococcus sp.; strain GC 4564): 0.25 µg/mL (≈ 0.171 µM)
- MIC Streptococcus pneumoniae (GC 4565) (Streptococcus sp.; strain GC 4565): <0.06 µg/mL
- median effective dose (ED50), Staphylococcus aureus-SMITH (GC 4543) [1]: 0.14 mg/kg
